{"source": "paper PMC11784145", "about": "“Efficacy and in vitro pharmacological assessment of novel N-hydroxypyridinediones as hepatitis B virus ribonuclease H inhibitors” (Antimicrobial Agents and Chemotherapy, 2024)", "key": {"[1]": {"molecular_target": "T1, human ribonuclease H1 (huRNase H1) (Homo sapiens, UniProt O60930)", "T1 construct": "made in house; host or cells: Escherichia coli", "T1 sequence (O60930 1-286)": "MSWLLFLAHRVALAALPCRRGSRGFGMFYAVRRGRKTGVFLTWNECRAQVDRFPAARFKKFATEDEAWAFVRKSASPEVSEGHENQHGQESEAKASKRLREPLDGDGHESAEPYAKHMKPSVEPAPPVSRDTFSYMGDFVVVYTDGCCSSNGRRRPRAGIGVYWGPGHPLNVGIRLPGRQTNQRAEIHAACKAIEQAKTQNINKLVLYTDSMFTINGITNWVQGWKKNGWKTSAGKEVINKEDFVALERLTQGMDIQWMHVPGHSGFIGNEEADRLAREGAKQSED", "assay": "Human RNase H1 inhibition, fluorescent biochemical assay"}, "MDCK-MDR1 cells": {"tested_on": "MDCK-MDR1 cells", "assay": "MDCK-MDR1 permeability assay", "format": "in vitro ADME", "details": "10 µM compound, 2 h; for Efflux Ratio (Papp B-A/A-B): MDCK-MDR1 cells, actively effluxed if >2", "procedure": "MDCK-MDR1 cells were seeded on 96-well, high protein binding immobilon-P membrane plates (Millipore Sigma) at 2.4 × 10^4 cells per well for 4 days. Media were then decanted, and the cells were equilibrated with Hanks balanced salt solution (HBSS) supplemented with 10 mM CaCl2 and 1 mM MgCl2 for 1 h. Compound (10 µM) was then added to the apical side to assess active transport and to the basolateral side to assess active efflux. The cells were incubated with compound for 2 h with shaking at 37°C. Samples (50 µL) were retrieved from the recipient wells and mixed with 150 µL acetonitrile (ACN) and internal standard (1:1 of 200 ng/mL chloridazon:enalapril). Samples were pelleted at 4,000 × g and the supernatant was analyzed by liquid-chromatography/tandem mass spectrometry (LCMS/MS) analyses. […]. Active efflux was determined by Papp B/A/Papp A/B.\nTight junction formation was assessed by lucifer yellow permeation immediately following sample retrieval. Briefly, lucifer yellow (10 µM) was added to the apical wells and HBSS was added to the basolateral wells for 1 h with shaking at 37°C, after which sample was collected from the basolateral side and read on a Biotek Synergy HTX multi-mode plate reader with 485/20 excitation and 520/20 emission filters defined by the Center Wavelength/band-pass values. The percent lucifer yellow fluorescence was determined by subtracting the HBSS relative fluorescent units (RFU) from the sample RFU and normalizing to the lucifer yellow positive control RFU. Lucifer yellow permeation was determined to be acceptable if ≤3%."}, "[2]": {"assay": "Parallel artificial membrane permeability assay (PAMPA)", "format": "in vitro ADME", "procedure": "Compound Papp values were determined by normalizing the experimental compound absorbance to the compounds’ absorbances at equilibrium, membrane porosity, buffer volume, and time (s). Two or more replicate assays were obtained on separate days for each pH."}, "plasma proteins": {"tested_on": "plasma proteins", "assay": "Plasma protein binding, rapid equilibrium dialysis", "format": "in vitro ADME, bovine", "details": "10 µM compound, DMEM-F12 with 10% FBS (0.25 mg/mL BSA), 4 h, 37°C", "procedure": "Plasma protein binding was performed using the Pierce rapid equilibrium dialysis device (Thermo Fisher) per the manufacturer’s instructions, as described ([27]). Briefly, the sample wells contained DMEM-F12 supplemented with 10% FBS spiked with 10 µM compound, and the buffer wells contained phosphate-buffered saline (PBS). The plate was incubated for 4 h at 37°C with shaking, after which 50 µL was retrieved from the buffer and sample wells and added to ice-cold acetonitrile and the internal standard described above. Samples were matrix-matched with PBS supplemented with 10% FBS or PBS alone, respectively, and centrifuged at 4,000 × g for 5 min to pellet plasma proteins. The supernatants were analyzed by LCMS/MS and percent compound bound was determined, as described previously ([27])."}, "HepDES19 cells": {"tested_on": "HepDES19 cells", "details": "read-out: HepDES19 CC50; 72 h, MTS; highest concentration tested 100 µM; mean ± SD"}, "Microsome stability": {"assay": "Microsome stability", "format": "in vitro ADME, human", "details": "human liver microsomes; for Clearance (intrinsic clearance, Clint) / Half-life: 1 µM compound, 30 min, NADPH"}, "[3]": {"tested_on": "HBV replication (HBV plus-polarity DNA strand)", "assay": "HBV replication inhibition, strand preferential qPCR in hepDES19 cells", "format": "cell-based, hepatitis B virus", "details": "for EC50: 72 h exposure", "procedure": "HBV replication inhibition was measured in hepDES19 cells following 72 h compound exposure without compound replenishment. EC50 values were determined by HBV plus-polarity strand suppression using a strand preferential qPCR assay, as described previously ([28]). Three or more replicate values were obtained on different days."}, "[4]": {"assay": "Solubility limit, turbidimetric assay", "format": "physicochemical", "details": "upper limit 200 µM", "procedure": "Solubility limits were determined by a turbidimetric assay, as described ([27]), with the solubility limit being defined as the compound concentration where light scattering began to rise. Two or more replicate assays were performed for each compound at each pH on different days."}, "[5]": {"details": "HBV plus-polarity strand suppression, highest concentration tested 100 µM, mean ± SD, read-out: HepDES19 EC50"}, "[6]": {"details": "read-out: EC50 against HBV replication"}, "[7]": {"details": "pH 5 (fed simulated intestinal fluid)"}, "[8]": {"details": "pH 6.5 (fasted simulated intestinal fluid)"}}, "note": "Like-named read-outs stand apart in the source and are kept apart here."}
{"compound": "CC(=NOCc1ccc(F)c(F)c1)c1c(C)cc(=O)n(O)c1O", "note": "[Compound 1617]", "values": [{"measurement": "Selectivity of HBV replication inhibition over huRNase H1 (huRNase H1 IC50 versus HBV EC50)", "setting": "[1]", "value": "at least 10 fold"}, {"measurement": "MDCK-MDR1 Papp category, apical to basolateral (A-B)", "setting": "MDCK-MDR1 cells", "value": "low (low (<1*10^−6 cm/s))"}, {"measurement": "MDCK-MDR1 Papp category, basolateral to apical (B-A)", "setting": "MDCK-MDR1 cells", "value": "low (low (<1*10^−6 cm/s))"}, {"measurement": "Efflux Ratio (Papp B-A/A-B)", "setting": "MDCK-MDR1 cells", "value": 1.01}, {"measurement": "Avg Papp (PAMPA)", "setting": "[2]; FeSSIF pH 5", "value": "1.51e-05", "unit": "cm/s"}, {"measurement": "Interpretation (PAMPA Papp)", "setting": "[2]; FeSSIF pH 5", "value": "H (H: Papp > 1*10-6)"}, {"measurement": "Papp 1 (PAMPA)", "setting": "[2]; FeSSIF pH 5, replicate 1", "value": "4.04e-06", "unit": "cm/s"}, {"measurement": "Papp 2 (PAMPA)", "setting": "[2]; FeSSIF pH 5, replicate 2", "value": "2.61e-05", "unit": "cm/s"}, {"measurement": "Avg Papp (PAMPA)", "setting": "[2]; pH 7.4", "value": "9.5e-07", "unit": "cm/s"}, {"measurement": "PAMPA apparent permeability (Papp) category", "setting": "[2]; pH 7.4", "value": "low (low (<1 × 10^−6 cm/s))"}, {"measurement": "Papp 1 (PAMPA)", "setting": "[2]; pH 7.4, replicate 1", "value": "1.46e-06", "unit": "cm/s"}, {"measurement": "Papp 2 (PAMPA)", "setting": "[2]; pH 7.4, replicate 2", "value": "4.78e-07", "unit": "cm/s"}, {"measurement": "Papp 3 (PAMPA)", "setting": "[2]; pH 7.4, replicate 3", "value": "9.11e-07", "unit": "cm/s"}, {"measurement": "Percent bound", "setting": "plasma proteins", "value": "100 ± 0.019", "unit": "%"}, {"measurement": "CC50", "setting": "HepDES19 cells", "value": "72.9 ± 37.1", "unit": "µM"}, {"measurement": "Intrinsic clearance (Clint) rate category", "setting": "Microsome stability", "value": "medium (medium Clint rates (≥ 8.6 and ≤47))"}, {"measurement": "Clearance (intrinsic clearance, Clint)", "setting": "Microsome stability", "value": 45.7, "unit": "µL/min/mg"}, {"measurement": "Half-life", "setting": "Microsome stability", "value": 23.0, "unit": "min"}, {"measurement": "HepDES19 SI (CC50/EC50)", "setting": "[3]", "value": 157}, {"measurement": "EC50", "setting": "[3]; [5]", "value": "350 ± 193", "unit": "nM"}, {"measurement": "EC50", "setting": "[3]; [6]", "value": "< 400", "unit": "nM"}, {"measurement": "Average Sol (solubility limit)", "setting": "[4]; [7]", "value": "> 200", "unit": "µM"}, {"measurement": "Sol 1 (solubility limit)", "setting": "[4]; pH 5, replicate 1", "value": "> 200", "unit": "µM"}, {"measurement": "Sol 2 (solubility limit)", "setting": "[4]; pH 5, replicate 2", "value": "> 200", "unit": "µM"}, {"measurement": "Average Sol (solubility limit)", "setting": "[4]; [8]", "value": "> 200", "unit": "µM"}, {"measurement": "Sol 1 (solubility limit)", "setting": "[4]; pH 6.5, replicate 1", "value": "> 200", "unit": "µM"}, {"measurement": "Sol 2 (solubility limit)", "setting": "[4]; pH 6.5, replicate 2", "value": "> 200", "unit": "µM"}, {"measurement": "Average Sol (solubility limit)", "setting": "[4]; pH 7.4 (DMEM-F12 with 10% FBS)", "value": "> 200", "unit": "µM"}, {"measurement": "Sol 1 (solubility limit)", "setting": "[4]; pH 7.4, replicate 1", "value": "> 200", "unit": "µM"}, {"measurement": "Sol 2 (solubility limit)", "setting": "[4]; pH 7.4, replicate 2", "value": "> 200", "unit": "µM"}]}
{"compound": "CC(=NOCc1cccc(F)c1)c1c(C)cc(=O)n(O)c1O", "note": "[Compound 1618]", "values": [{"measurement": "Selectivity of HBV replication inhibition over huRNase H1 (huRNase H1 IC50 versus HBV EC50)", "setting": "[1]", "value": "at least 10 fold"}, {"measurement": "MDCK-MDR1 Papp category, apical to basolateral (A-B)", "setting": "MDCK-MDR1 cells", "value": "low (low (<1*10^−6 cm/s))"}, {"measurement": "MDCK-MDR1 Papp category, basolateral to apical (B-A)", "setting": "MDCK-MDR1 cells", "value": "low (low (<1*10^−6 cm/s))"}, {"measurement": "Efflux Ratio (Papp B-A/A-B)", "setting": "MDCK-MDR1 cells", "value": 0.84}, {"measurement": "Avg Papp (PAMPA)", "setting": "[2]; FeSSIF pH 5", "value": "1.64e-05", "unit": "cm/s"}, {"measurement": "Interpretation (PAMPA Papp)", "setting": "[2]; FeSSIF pH 5", "value": "H (H: Papp > 1*10-6)"}, {"measurement": "Papp 1 (PAMPA)", "setting": "[2]; FeSSIF pH 5, replicate 1", "value": "1.54e-05", "unit": "cm/s"}, {"measurement": "Papp 2 (PAMPA)", "setting": "[2]; FeSSIF pH 5, replicate 2", "value": "1.74e-05", "unit": "cm/s"}, {"measurement": "Avg Papp (PAMPA)", "setting": "[2]; pH 7.4", "value": "4.89e-07", "unit": "cm/s"}, {"measurement": "PAMPA apparent permeability (Papp) category", "setting": "[2]; pH 7.4", "value": "low (low (<1 × 10^−6 cm/s))"}, {"measurement": "Papp 1 (PAMPA)", "setting": "[2]; pH 7.4, replicate 1", "value": "3.95e-07", "unit": "cm/s"}, {"measurement": "Papp 2 (PAMPA)", "setting": "[2]; pH 7.4, replicate 2", "value": "5.82e-07", "unit": "cm/s"}, {"measurement": "Percent bound", "setting": "plasma proteins", "value": "93.5 ± 0.129", "unit": "%"}, {"measurement": "CC50", "setting": "HepDES19 cells", "value": "73.9 ± 28.6", "unit": "µM"}, {"measurement": "Intrinsic clearance (Clint) rate category", "setting": "Microsome stability", "value": "low (low Clint (µL/min/mg protein) rates (<8.6))"}, {"measurement": "Clearance (intrinsic clearance, Clint)", "setting": "Microsome stability", "value": 5.71, "unit": "µL/min/mg"}, {"measurement": "Half-life", "setting": "Microsome stability", "value": ">30", "unit": "min"}, {"measurement": "HepDES19 SI (CC50/EC50)", "setting": "[3]", "value": "1,071"}, {"measurement": "EC50", "setting": "[3]; [5]", "value": "61 ± 10", "unit": "nM"}, {"measurement": "EC50", "setting": "[3]; [6]", "value": "< 400", "unit": "nM"}, {"measurement": "Average Sol (solubility limit)", "setting": "[4]; [7]", "value": "> 200", "unit": "µM"}, {"measurement": "Sol 1 (solubility limit)", "setting": "[4]; pH 5, replicate 1", "value": "> 200", "unit": "µM"}, {"measurement": "Sol 2 (solubility limit)", "setting": "[4]; pH 5, replicate 2", "value": "> 200", "unit": "µM"}, {"measurement": "Average Sol (solubility limit)", "setting": "[4]; [8]", "value": "> 200", "unit": "µM"}, {"measurement": "Sol 1 (solubility limit)", "setting": "[4]; pH 6.5, replicate 1", "value": "> 200", "unit": "µM"}, {"measurement": "Sol 2 (solubility limit)", "setting": "[4]; pH 6.5, replicate 2", "value": "> 200", "unit": "µM"}, {"measurement": "Sol 3 (solubility limit)", "setting": "[4]; pH 6.5, replicate 3", "value": "> 200", "unit": "µM"}, {"measurement": "Average Sol (solubility limit)", "setting": "[4]; pH 7.4 (DMEM-F12 with 10% FBS)", "value": "> 200", "unit": "µM"}, {"measurement": "Sol 1 (solubility limit)", "setting": "[4]; pH 7.4, replicate 1", "value": "> 200", "unit": "µM"}, {"measurement": "Sol 2 (solubility limit)", "setting": "[4]; pH 7.4, replicate 2", "value": "> 200", "unit": "µM"}]}
